# Source: patent publication US20240360178A1, “MACROCYCLIC IMMUNOMODULATORS” (Bristol-Myers Squibb Company, priority 2021, published 2024)
# Positions of bridges follow the written chain, without caps; N, C: chain ends. Non-standard residues stand in square brackets, D forms with d. Residues, ends and D or L forms follow the SMILES beside them. ξ: configuration not given here. Bip = N[C@@H](Cc1ccc(-c2ccccc2)cc1)C(=O)O; NMeF = CN[C@@H](Cc1ccccc1)C(=O)O; ξR = N=C(N)NCCCC(N)C(=O)O; NMeA = CN[C@@H](C)C(=O)O
# Molecular target: T1, human PD-1 (Jurkat-PD-1 cells) / PE-labeled human PD-L1-Ig (Homo sapiens, UniProt Q15116)
# T1 construct: expressed in transfected cells; host or cells: Jurkat cell line over-expressing human PD-1
# Assay: Jurkat-PD-1 Cell Binding High-Content Screening Assay (CBA); Jurkat hPD1-PDL1 assay
# Conditions: Jurkat cell line over-expressing human PD-1; PE-labeled PD-L1-Ig 20 nM final; compound incubated 2 hours at 37° C.; read-out: Jurkat HPD1-PDL1 IC50
# Method in brief: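 Jurkat cells over-expressing human PD-1, seeded in DMEM with 10% fetal calf serum, were preincubated with compound for 2 hours at 37° C. PE-labeled human PD-L1-Ig was then added at 20 nM final, and cell-bound fluorescence was read by high-content imaging.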
# T1 sequence (Q15116 25-288): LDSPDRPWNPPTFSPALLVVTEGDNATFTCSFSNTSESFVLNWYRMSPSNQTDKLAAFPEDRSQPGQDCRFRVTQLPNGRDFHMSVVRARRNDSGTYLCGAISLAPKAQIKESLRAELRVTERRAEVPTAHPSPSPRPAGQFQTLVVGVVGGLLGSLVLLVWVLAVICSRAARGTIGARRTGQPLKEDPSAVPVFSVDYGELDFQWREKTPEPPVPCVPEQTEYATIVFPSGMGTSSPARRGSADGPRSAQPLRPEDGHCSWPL
row,SMILES,IC50 [nM]
1,CC(C)C[C@@H]1NC(=O)[C@H](CCCNC(=N)N)NC(=O)[C@H](Cc2ccccc2)N(C)C(=O)[C@H](C)N(C)C(=O)[C@H](C(C)C)NC(=O)[C@H](Cc2ccc(-c3ccccc3)cc2)NC(=O)[C@H](C(C)C)NC(=O)[C@H](Cc2c[nH]c3ccccc23)NC(=O)[C@H](CC(=O)O)NC(=O)[C@H](Cc2ccc(O)cc2)NC(=O)[C@H](Cc2ccccc2)NC(=O)CSC[C@@H](C(=O)NCC(N)=O)NC(=O)[C@H](CO)NC(=O)[C@H](C(C)C)NC1=O [Example 1206] ({CH2CO}-FYDWV[Bip]V[NMeA][NMeF]RLVSCG-NH2; thioether N-14),450
2,CC(C)C[C@@H]1NC(=O)[C@H](CC(N)=O)NC(=O)[C@H](Cc2ccccc2)N(C)C(=O)[C@H](C)N(C)C(=O)[C@H](CCCNC(=N)N)NC(=O)[C@H](Cc2ccc(-c3ccccc3)cc2)NC(=O)[C@H](C(C)C)NC(=O)[C@H](Cc2c[nH]c3ccccc23)NC(=O)[C@H](CC(=O)O)NC(=O)[C@H](Cc2ccc(O)cc2)NC(=O)[C@H](Cc2ccccc2)NC(=O)CSC[C@@H](C(=O)NCC(N)=O)NC(=O)[C@H](CO)NC(=O)[C@H](C(C)C)NC1=O [Example 1207] ({CH2CO}-FYDWV[Bip]R[NMeA][NMeF]NLVSCG-NH2; thioether N-14),320
3,CC(C)C[C@@H]1NC(=O)[C@H](CCCNC(=N)N)NC(=O)[C@H](Cc2ccccc2)N(C)C(=O)[C@H](C)N(C)C(=O)[C@H](C)NC(=O)[C@H](Cc2ccc(-c3ccccc3)cc2)NC(=O)[C@H](C(C)C)NC(=O)[C@H](Cc2c[nH]c3ccccc23)NC(=O)[C@H](CC(=O)O)NC(=O)[C@H](Cc2ccc(O)cc2)NC(=O)[C@H](Cc2ccccc2)NC(=O)CSC[C@@H](C(=O)NCC(N)=O)NC(=O)[C@H](CO)NC(=O)[C@H](C(C)C)NC1=O [Example 1208] ({CH2CO}-FYDWV[Bip]A[NMeA][NMeF]RLVSCG-NH2; thioether N-14),820
4,CC(C)C[C@@H]1NC(=O)[C@H](C)NC(=O)[C@H](Cc2ccccc2)N(C)C(=O)[C@H](C)N(C)C(=O)[C@H](CCCNC(=N)N)NC(=O)[C@H](Cc2ccc(-c3ccccc3)cc2)NC(=O)[C@H](C(C)C)NC(=O)[C@H](Cc2c[nH]c3ccccc23)NC(=O)[C@H](CC(=O)O)NC(=O)[C@H](Cc2ccc(O)cc2)NC(=O)[C@H](Cc2ccccc2)NC(=O)CSC[C@@H](C(=O)NCC(N)=O)NC(=O)[C@H](CO)NC(=O)[C@H](C(C)C)NC1=O [Example 1209] ({CH2CO}-FYDWV[Bip]R[NMeA][NMeF]ALVSCG-NH2; thioether N-14),780
5,CC(C)C[C@@H]1NC(=O)[C@H](CCCNC(=N)N)NC(=O)[C@H](Cc2ccccc2)N(C)C(=O)[C@H](C)N(C)C(=O)[C@H](CCCNC(=N)N)NC(=O)[C@H](Cc2ccc(-c3ccccc3)cc2)NC(=O)[C@H](C(C)C)NC(=O)[C@H](Cc2c[nH]c3ccccc23)NC(=O)[C@H](CC(=O)O)NC(=O)[C@H](Cc2ccc(O)cc2)NC(=O)[C@H](CCC(=O)O)NC(=O)CSC[C@@H](C(=O)NCC(N)=O)NC(=O)[C@H](CO)NC(=O)[C@H](C(C)C)NC1=O [Example 1210] ({CH2CO}-EYDWV[Bip]R[NMeA][NMeF]RLVSCG-NH2; thioether N-14),600
6,CC(C)C[C@@H]1NC(=O)[C@H](CCCNC(=N)N)NC(=O)[C@H](Cc2ccccc2)N(C)C(=O)[C@H](C)N(C)C(=O)[C@H](CCCNC(=N)N)NC(=O)[C@H](Cc2ccc(-c3ccccc3)cc2)NC(=O)[C@H](C(C)C)NC(=O)[C@H](Cc2c[nH]c3ccccc23)NC(=O)[C@H](CC(=O)O)NC(=O)[C@H](Cc2ccc(O)cc2)NC(=O)[C@H](CCCCN)NC(=O)CSC[C@@H](C(=O)NCC(N)=O)NC(=O)[C@H](CO)NC(=O)[C@H](C(C)C)NC1=O [Example 1211] ({CH2CO}-KYDWV[Bip]R[NMeA][NMeF]RLVSCG-NH2; thioether N-14),650
7,CC(C)C[C@@H]1NC(=O)[C@H](CCCNC(=N)N)NC(=O)[C@H](Cc2ccccc2)N(C)C(=O)[C@H](C)N(C)C(=O)[C@H](CCCNC(=N)N)NC(=O)[C@H](Cc2ccc(-c3ccccc3)cc2)NC(=O)[C@H](C(C)C)NC(=O)[C@H](Cc2c[nH]c3ccccc23)NC(=O)[C@H](CC(=O)O)NC(=O)[C@H](Cc2ccc(O)cc2)NC(=O)[C@H](CCCNC(=N)N)NC(=O)CSC[C@@H](C(=O)NCC(N)=O)NC(=O)[C@H](CO)NC(=O)[C@H](C(C)C)NC1=O [Example 1212] ({CH2CO}-RYDWV[Bip]R[NMeA][NMeF]RLVSCG-NH2; thioether N-14),610

# Next, values leading:
row,IC50 [nM],SMILES
1,590,CC(C)C[C@@H]1NC(=O)[C@H](CCCNC(=N)N)NC(=O)[C@H](Cc2ccccc2)N(C)C(=O)[C@H](C)N(C)C(=O)[C@H](CCCNC(=N)N)NC(=O)[C@H](Cc2ccc(-c3ccccc3)cc2)NC(=O)[C@H](C(C)C)NC(=O)[C@H](Cc2c[nH]c3ccccc23)NC(=O)[C@H](CC(=O)O)NC(=O)[C@H](CCCCN)NC(=O)[C@H](Cc2ccccc2)NC(=O)CSC[C@@H](C(=O)NCC(N)=O)NC(=O)[C@H](CO)NC(=O)[C@H](C(C)C)NC1=O [Example 1213] ({CH2CO}-FKDWV[Bip]R[NMeA][NMeF]RLVSCG-NH2; thioether N-14)
2,60,CC(C)C[C@@H]1NC(=O)[C@H](CCCNC(=N)N)NC(=O)[C@H](Cc2ccccc2)N(C)C(=O)[C@H](C)N(C)C(=O)[C@H](CCC(=O)O)NC(=O)[C@H](Cc2ccc(-c3ccccc3)cc2)NC(=O)[C@H](C(C)C)NC(=O)[C@H](Cc2c[nH]c3ccccc23)NC(=O)[C@H](CC(=O)O)NC(=O)[C@H](Cc2ccc(O)cc2)NC(=O)[C@H](Cc2ccccc2)NC(=O)CSC[C@@H](C(=O)NCC(N)=O)NC(=O)[C@H](CO)NC(=O)[C@H](C(C)C)NC1=O [Example 1214] ({CH2CO}-FYDWV[Bip]E[NMeA][NMeF]RLVSCG-NH2; thioether N-14)
3,90,CC(C)C[C@@H]1NC(=O)C(CCCNC(=N)N)NC(=O)[C@H](Cc2ccccc2)N(C)C(=O)[C@H](CCCCN)NC(=O)[C@H](CCCNC(=N)N)NC(=O)[C@H](Cc2ccc(-c3ccccc3)cc2)NC(=O)[C@H](C(C)C)NC(=O)[C@H](Cc2c[nH]c3ccccc23)NC(=O)[C@H](CC(=O)O)NC(=O)[C@H](Cc2ccc(O)cc2)NC(=O)[C@H](Cc2ccccc2)NC(=O)CSC[C@@H](C(=O)NCC(N)=O)NC(=O)[C@H](CO)NC(=O)[C@H](C(C)C)NC1=O (stereo partly drawn) [Example 1216] ({CH2CO}-FYDWV[Bip]RK[NMeF][ξR]LVSCG-NH2; thioether N-14)
4,230,CC(C)C[C@@H]1NC(=O)C(CCCNC(=N)N)NC(=O)[C@H](Cc2ccccc2)N(C)C(=O)[C@H](C)N(C)C(=O)[C@H](CCCNC(=N)N)NC(=O)[C@H](Cc2ccc(-c3ccccc3)cc2)NC(=O)[C@H](C(C)C)NC(=O)[C@H](Cc2c[nH]c3ccccc23)NC(=O)[C@H](CC(=O)O)NC(=O)[C@H](Cc2ccc(O)cc2)NC(=O)[C@H](Cc2ccccc2)NC(=O)CSC[C@@H](C(=O)NCC(N)=O)NC(=O)[C@H](CO)NC(=O)[C@H](CCC(=O)O)NC1=O (stereo partly drawn) [Example 1218] ({CH2CO}-FYDWV[Bip]R[NMeA][NMeF][ξR]LESCG-NH2; thioether N-14)
5,610,CC(C)C[C@@H]1NC(=O)C(CCCNC(=N)N)NC(=O)[C@H](Cc2ccccc2)N(C)C(=O)[C@H](C)N(C)C(=O)[C@H](CCCNC(=N)N)NC(=O)[C@H](Cc2ccc(-c3ccccc3)cc2)NC(=O)[C@H](C(C)C)NC(=O)[C@H](Cc2c[nH]c3ccccc23)NC(=O)[C@H](CC(=O)O)NC(=O)[C@H](Cc2ccc(O)cc2)NC(=O)[C@H](Cc2ccccc2)NC(=O)CSC[C@@H](C(=O)NCC(N)=O)NC(=O)[C@H](CCC(=O)O)NC(=O)[C@H](C(C)C)NC1=O (stereo partly drawn) [Example 1219] ({CH2CO}-FYDWV[Bip]R[NMeA][NMeF][ξR]LVECG-NH2; thioether N-14)
